Measured values: patent publication US12285459B2, “Saposin-A derived peptides and uses thereof” (CHILDREN'S MEDICAL CENTER CORPORATION, priority 2011, dated 2025)

Test system: Tsp-1 expression in Gr1+ cells
Test: Tsp-1 in Gr1+ cells in lungs of mice given PC3M-LN4 CM plus peptide
Format: in vivo, C57BL/6J mice
Method: CM from PC3M-LN4 cells cultured in serum-free medium for 24 hours was harvested, centrifuged and filtered through […] pore-size filters to remove any cells or cell debris. Wild-type C57BL/6J mice were treated with 200 μL serum-free conditioned media from PC3M-LN4 cells daily for 6 days via intraperitoneal (i.p.) injection in combination with DWLPK (SEQ ID NO: 4) peptide or scrambled peptide.
Animals were euthanized at the end of experiments and lungs were quickly perfused by injecting 5 ml of cold PBS through the right ventricle of the heart. One part of the lung from each animal was fixed in 3.7% formalin and the other part was sorted by flow cytometry for either protein or RNA extraction.
For microscopy, following formalin fixation, tissues were cryoembedded in Tissue-Tek O.C.T. embedding compound (Electron Microscopy Sciences). Sections (30 μm) were washed 3 times in PBS and incubated in blocking/permeabilization buffer (PBS+2 mM EDTA, 1% BSA, 1% Goat Serum, 0.05% Triton X-100). […]
Total RNA from flow cytometry sorted cells was extracted using the PicoPure RNA extraction kit (Arcturus) following the manufacturer's protocol. […] The relative abundance of each transcript compared with the control was calculated utilizing the delta-Ct method.

## DWLPK [5-amino acid peptide corresponding to residues 36-40 of saposin A]
LN4 CM alone or in combination with peptide
  recruitment of Gr1+ cells in the lungs: identical regardless of the treatment
LN4 CM daily for 6 days i.p. in combination with peptide
  Tsp-1 expression in the Gr1+ cells: more than two fold
